Patent US8114382B2, “Myelin detection using benzofuran derivatives” (General Electric Company, priority 2006, dated 2012)

Assays:
[1] = Fluorescence excitation and emission peaks (Spetramax M5); assay type: physicochemical; details: 10 μM in aqueous solution
Method: Fluorescence excitation and emission peaks for Formula I, and benzofuran compounds A and B, (see Table 1) were measured using a Spetramax M5 (Molecular Devices). For Formula I, the excitation max was 380 nm, and the emission max was 470 nm. For compound A, the excitation max was 435 nm and the emission max was 550 nm. For compound B, the excitation max was 435 nm and the emission max was 535 nm. The final concentration of each analog in an aqueous solution was 10 μM. Log P, which is the logarithm of octanol-water partition coefficient, was determined for each analog using commercially available software (Table 1).

myelin = test: Staining of cryostatic sections of nervous tissue; assay type: binding, rat; details: for labeling of brain or nerve tissue versus background autofluorescence: brain and nerve sections
Method: 10 μm-thick sections (fresh frozen or formalin-fixed) of rat brain and cross-sections of sciatic, optic, and penile nerves were mounted on microscope slides, washed 3×5 min in phosphate buffered saline (PBS), then drained for 2 min. 1 mM stock solution of Formula I was prepared in 50% ethanol and 50% deionized water. The solution was vortexed and centrifuged at 10,000×g, and the supernatant, containing fully dissolved Formula I was transferred into a fresh tube. The solution was diluted to 25 uM in 50% ethanol. 200 uL of the 25 uM Formula I was pipetted onto the microscope slides. Control sections were treated with 50% ethanol. Parafilm was placed over sections during 10 min incubation at room temperature. Unbound compound was rinsed by serial immersion in 3×1 min washes in 50% ethanol, followed by a 1 min wash in de-ionized, distilled water. For cell body counterstaining, sections were immersed in 100 uL of 500 nM propidium iodide (PI) in PBS and carefully covered with parafilm. The sections were incubated for 5 min at room temperature. The samples were repeatedly rinsed and washed with PBS (3×10 min), followed by de-ionized, distilled water. The sections were covered with 20 uL of AntiFade Gold (Molecular Probes Inc, Carlsbad Calif.) and examined microscopically. Images were collected on a Leica DMRA2 fluorescent microscope equipped with filter cubes for near ultraviolet and visible fluorophores. Fluorescence was visualized using a Leica “A” filter cube while PI was imaged with a Leica “TX2” cube.
Staining of sciatic nerve sections by Formula I was also compared to a commercially available myelin stain (FluoroMyelin, Invitrogen). The tissue sections were […] by incubating in PBS for 5 minutes, followed by permeabilized with PBS containing 0.2% Triton X-100 for 20 minutes. The staining solution was prepared by 300-fold dilution of a stock solution of DAPI and a stock solution of Fluoromyelin green fluorescent myelin. Each section was flooded with 100 uL of the staining solution, covered with a small piece of parafilm and allowed to incubate for 20 min. The parafilm was removed and all sections were washed 3×5 min in PBS and rinsed with de-ionized, distilled water. After drying, the tissue sections were covered with 20 uL of AntiFade Gold (Molecular Probes Inc) and examined microscopically.

[2] = test system: myelin of freshly explanted sciatic nerve; test: Staining of explanted nerves; assay type: binding, rat; details: 20 min incubation, trans-illuminator ≧350 nm
Method: Freshly explanted sciatic nerve was incubated in Formula I then imaged under an ultraviolet transilluminator to visualize myelin. Rats were euthanized and within 30 min, 2 cm-long segments of their sciatic nerve tissue were collected, rinsed with PBS, then washed 3×5 min in 50% ethanol. The nerves were incubated at RT in the dark for 20 min in a solution of Formula I as prepared in Example 1. Control nerves were incubated in 50% ethanol. Nerves were rinsed 3×3 min in 50% ethanol, followed by de-ionized distilled water, and mounted on glass slides. Samples were placed on a trans-illuminator (long wavelength, ≧350 nm) and photographed.

[3] = Kinetics and biodistribution of [3H] labeled Formula I (standard uptake values); assay type: in vivo; details: mice
Method: 100 μl of [^3H] labeled Formula I, diluted in saline to 740 kBq/ml, was injected into the tail vein of female mice weighing […]. Mice were killed by CO2 at 2, 5, 15, 30, or 60 min post-injection and organs immediately dissected out. Organs were weighed, transferred to scintillation tubes containing 2 ml Biolute-S (Zinsser Analytic GmbH, Germany), and tubes were shaken overnight at room temperature. Subsequently, 200 μL of glacial acetic acid was added and after 1 h, 10 mL of scintillation fluid was added (Ready Organics, Beckman Coulter). The tubes were shaken vigorously, allowed to rest for 1 h, and radioactivity was measured in scintillation counter (LS 6000LL, Beckman Instruments). Blood, also sampled at each time point, was collected in heparinized tubes. 10 μL of each sample was added to 2 ml Biolute-S. A similar procedure was used for the other organs studied.
Biodistribution of Formula I at different time points following administration was expressed as standard uptake values (SUVs), according to the following formula wherein RA is a measure of radioactivity: […]

Row | Emission max [1] | Excitation max [1] | SUV of cortex and cerebellum ([3]; tail vein injection, 2 min post-injection) | time for SUV of multiple tissues to decline to baseline levels ([3]; tail vein injection, tissues such as blood and muscle) | Compound | labeling of rat brain tissue section (myelin; 25 uM in 50% ethanol, 10 min, cerebellum, PI counterstain, FIG. 1) | labeling of sectioned peripheral nerves (myelin; cross-sections of peripheral nerves) | fluorescence of explanted sciatic nerve [2] | blood-brain barrier penetration ([3]; peripheral administration, uptake in cortex and cerebellum) | SUV / radioactive signal of sciatic nerve over time ([3]; tail vein injection, 2-60 min) | labeling of brain or nerve tissue versus background autofluorescence (myelin)
1 | 470 nm | 380 nm | < 0.2 | ≤ 60 min | O=Cc1ccc(-c2oc3ccccc3c2CO)o1 [Formula I, 2-(2-furanyl-5-formyl)-3-hydroxymethyl benzofuran] | specific labeling of myelin | distinctive rings of labeling indicative of cross sections of myelin ensheathing unlabeled axon shafts | distinctive fluorescence over background | does not readily penetrate the blood-brain barrier | remained elevated throughout the sampling period | –
2 | 550 nm | 435 nm | – | – | N#CC(C#N)=Cc1ccc(-c2oc3ccccc3c2CO)o1 [compound A] | – | – | – | – | – | did not label brain or nerve tissue above background autofluorescence
3 | 535 nm | 435 nm | – | – | CC(=O)OCc1c(-c2ccc(C=C(C#N)C#N)o2)oc2ccccc12 [compound B, 2-(2-diaminooxyethenyl-5-furanyl)-3-ethylacetyl benzofuran] | – | – | – | – | – | did not label brain or nerve tissue above background autofluorescence
